Experiment: molar heat capacity at constant pressure
Details: 101.33 kPa, Crystal, Small sample (50 mg) DSC

c12c3c4c5c1c1c6c7c2c2c8c3c3c9c4c4c%10c5c5c1c1c6c6c%11c7c2c2c7c8c3c3c8c9c4c4c9c%10c5c5c1c1c6c6c%11c2c2c7c3c3c8c4c4c9c5c1c1c6c2c3c41 [buckminsterfullerene]
Details	molar heat capacity at constant pressure [J/K/mol]
298.15 K	535.8
300 K	538.6
350 K	648.1
400 K	742
450 K	830.1
500 K	917.4
